Test results from patent US7238706B2, “4-oxo-1-(3-substituted phenyl-1,4-dihydro-1,8-naphthyridine-3-carboxamide phosphodiesterase-4 inhibitors” (Merck Frosst Canada, Ltd., priority 2002, dated 2007).

Test system: TNF-α
Test: LPS-induced TNF-α assay in human whole blood
Format: cell-based
Details: LPS 1 μg/mL, 24 hours at 37° C., TNF-α by ELISA in plasma
Protocol: Whole blood provides a protein and cell-rich milieu appropriate for the study of biochemical efficacy of anti-inflammatory compounds such as PDE4-selective inhibitors. […] Upon stimulation with LPS, activated monocytes express and secrete TNF-α up to 8 hours and plasma levels remain stable for 24 hours. Published studies have shown that inhibition of TNF-α by increasing intracellular cAMP via PDE4 inhibition and/or enhanced adenylyl cyclase activity Occurs at the transcriptional level. […] As there is little LTB4 produced during a 24 hour LPS stimulation of whole blood, an additional LPS stimulation followed by fMLP challenge of human whole blood is necessary for LTB4 synthesis by activated neutrophils. Thus, by using the same blood sample, it is possible to evaluate the potency of a compound on two surrogate markers of PDE4 activity in the whole blood by the following procedure.
Fresh blood was collected in heparinized tubes by venipuncture from healthy human volunteers (male and female). These subjects had no apparent inflammatory conditions and had not taken any NSAIDs for at least 4 days prior to blood collection. 500 μL aliquots of blood were pre-incubated with either 2 μL of vehicle (DMSO) or 2 μL of test compound at varying concentrations for 15 minutes at 37° C. This was followed by the addition of either 10 μL vehicle (PBS) as blanks or 10 μL LPS (1 μg/mL final concentration, #L-2630 (Sigma Chemical Co., St. Louis, Mo.) from E. coli, serotype 0111:B4; diluted in 0.1% w/v BSA (in PBS)). After 24 hours of incubation at 37° C., another 10 μL of PBS (blank) or 10 μL of LPS (1 μg/mL final concentration) was added to blood and incubated for 30 minutes at 37° C. The blood was then challenged with either 10 μL of PBS (blank) or 10 μL of fMLP (1 μM final concentration, #F-3506 (Sigma); diluted in 1% w/v BSA (in PBS)) for 15 minutes at 37° C. The blood samples were centrifuged at 1500×g for 10 minutes at 4° C. to obtain plasma. A 50 μL aliquot of plasma was mixed with 200 μL methanol for protein precipitation and centrifuged as above. The supernatant was assayed for LTB4 using an enzyme immunoassay kit (#520111 from Cayman Chemical Co., Ann Arbor, Mich.) according to the manufacturer's procedure. TNF-α was assayed in diluted plasma (in PBS) using an ELISA kit (Cistron Biotechnology, Pine Brook, N.J.) according to manufacturer's procedure.

IC50 [nM]	SMILES
300	O=C(NC1CC1)c1cn(-c2cccc(-c3ccc([C@@H]4C[C@H]4C(=O)O)cc3)c2)c2ncccc2c1=O (relative stereo) [Example 1, 2-(trans)-{3′-[3-[(Cyclopropylamino)carbonyl]-4-oxo-1,8-naphthyridin-1(4H)-yl]-1,1′-biphenyl-4-yl}cyclopropanecarboxylic acid]
160	O=C(NCC(F)(F)F)c1cn(-c2cccc(-c3ccc([C@@H]4C[C@H]4C(=O)O)cc3)c2)c2ncccc2c1=O (single isomer, unassigned; (+)) [24-(+)-isomer, (+)-(trans)-2-{3′-[4-oxo-3-{[(2,2,2-trifluoroethyl)amino]carbonyl}-1,8-naphthyridin-1(4H)-yl]biphenyl-4-yl}cyclopropanecarboxylic acid]
160	O=C(NC1CC1)c1cn(-c2cccc(-c3ccc([C@H]4C[C@H]4C(=O)O)cc3)c2)c2ncccc2c1=O (single isomer, unassigned; isomer 2) [8-(−)-isomer, 2-(cis)-{3′-[3-[(Cyclopropylamino)carbonyl]-4-oxo-1,8-naphthyridin-1(4H)-yl]-1,1′-biphenyl-4-yl}cyclopropanecarboxylic acid]
100	O=C(NCC(F)(F)F)c1cn(-c2cccc(-c3ccc(C4CC4C(=O)O)c(F)c3)c2)c2ncccc2c1=O (single isomer, unassigned; (+)) [Example 29, (+)-(trans)-2-{3-fluoro-3′-[4-oxo-3-{[(2,2,2-trifluoroethyl)amino]carbonyl}-1,8-naphthyridin-1(4H)-yl]biphenyl-4-yl}cyclopropanecarboxylic acid]
75	CC(C)(CC(=O)O)c1ccc(-c2cccc(-n3cc(C(=O)NC4CC4)c(=O)c4cccnc43)c2)cc1 [Example 5, 3-{3′-[3-[(Cyclopropylamino)carbonyl]-4-oxo-1,8-naphthyridin-1(4H)-yl]-1,1′-biphenyl-4-yl}-3-methylbutanoic acid]
100	O=C(NC1CC1)c1cn(-c2cccc(-c3cccc(C4CC4C(=O)O)c3)c2)c2ncccc2c1=O (stereo not shown) [Example 2, 2-{3′-[3-[(Cyclopropylamino)carbonyl]-4-oxo-1,8-naphthyridin-1(4H)-yl]-1,1′-biphenyl-3-yl}cyclopropanecarboxylic acid]
1800	O=C(NC1CC1)c1cn(-c2cccc(-c3ccc(CC4(C(=O)O)CCC4)cc3)c2)c2ncccc2c1=O [Example 30, 1-({3′-[3-[(cyclopropylamino)carbonyl]-4-oxo-1,8-naphthyridin-1(4H)-yl]biphenyl-4-yl}methyl)cyclobutanecarboxylic acid]
90	O=C(NC1CC1)c1cn(-c2cccc(-c3ccc(C4CC4C(=O)O)c(Cl)c3)c2)c2ncccc2c1=O (stereo not shown) [Example 17, 2-{3-Chloro-3′-[3-[(cyclopropylamino)carbonyl]-4-oxo-1,8-naphthyridin-1(4H)-yl]1,1′-biphenyl-4-yl}cyclopropanecarboxylic acid]
160	O=C(NCC1CC1)c1cn(-c2cccc(-c3ccc(C4CC4C(=O)O)cc3)c2)c2ncccc2c1=O (stereo not shown) [Example 26, 2-{3′-[3-{[(Cyclopropylmethyl)amino]carbonyl}-4-oxo-1,8-naphthyridin-1(4H)-yl]-1,1′-biphenyl-4-yl}cyclopropanecarboxylic acid]
500	O=C(NC1CC1)c1cn(-c2cccc(-c3ccc(C4CC4C(=O)O)c(F)c3)c2)c2ncccc2c1=O (single isomer, unassigned; (-)) [12-(−)-isomer, (−)-(trans)-2-{3′-[3-[(cyclopropylamino)carbonyl]-4-oxo-1,8-naphthyridin-1(4H)-yl]-3-fluoro-1,1′-biphenyl-4-yl}cyclopropanecarboxylic acid]
